The text below walks through data of patent publication US20180271823A1, “SULFUR-BASED BROAD SPECTRUM ANTIVIRALS” (priority 2017, published 2018).

In series [1] the test system is some paramyxoviruses and pneumoviruses. Particulars: cited from earlier work.
Series [2] relates to pseudotyped NiV/VSV virus (pNiV). It is filed as cell-based, Nipah virus.
The test system of series [3] is HSV-1 KOS. It counts as cell-based.
For series [4], the system named is Human respiratory syncytial virus (RSV A2 strain). The series is described as follows: Plaque assay for RSV infections. It is filed as cell-based.
The subject of series [5] is vesicular stomatitis virus (VSV). It counts as cell-based.
The subject of series [6] is Influenza virus. It is filed as cell-based.
Series [7] deals with bovine rotavirus strain NCDV. In words: Rotavirus infection assay in MA104 cells. It counts as cell-based.
In series [8] the test system is 293T cells transfected with NiV F and G. It is filed as cell-based.
Series [9] concerns NiV F and G glycoproteins. It counts as cell-based.
Series [10] has as its system pNiV viral membrane. On the set-up: species or system NiV.
In series [11] the test system is pNiV viral membrane. On the set-up: species or system NiV. This is another data set of the same source.
In series [12] the target is NiV G glycoprotein (Nipah virus, UniProt Q9IH62).
Sequence of NiV G glycoprotein (Q9IH62 whole entry, looked up): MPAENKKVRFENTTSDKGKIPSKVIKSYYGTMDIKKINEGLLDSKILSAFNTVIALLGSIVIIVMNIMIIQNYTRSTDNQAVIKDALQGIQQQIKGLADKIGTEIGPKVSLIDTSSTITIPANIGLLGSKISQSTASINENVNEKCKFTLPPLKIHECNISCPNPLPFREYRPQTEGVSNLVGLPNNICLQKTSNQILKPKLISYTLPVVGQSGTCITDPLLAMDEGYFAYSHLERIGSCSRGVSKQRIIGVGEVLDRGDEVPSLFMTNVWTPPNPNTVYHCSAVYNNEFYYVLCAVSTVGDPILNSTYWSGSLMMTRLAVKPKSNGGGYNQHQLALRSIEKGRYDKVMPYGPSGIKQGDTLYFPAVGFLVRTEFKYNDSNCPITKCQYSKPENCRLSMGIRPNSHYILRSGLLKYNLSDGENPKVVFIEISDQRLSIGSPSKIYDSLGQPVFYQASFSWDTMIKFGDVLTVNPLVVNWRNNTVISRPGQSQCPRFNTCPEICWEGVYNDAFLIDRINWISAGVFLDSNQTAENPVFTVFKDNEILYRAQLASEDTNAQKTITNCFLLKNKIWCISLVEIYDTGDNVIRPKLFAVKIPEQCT
Series [13] has as its target NiV F protein (Nipah virus, UniProt Q9IH63).
In series [14] the target is NiV F and NiV G on pseudotyped NiV virions (Nipah virus, UniProt Q9IH62+Q9IH63).
In series [15] the test system is Vero cells. In words: Cytotoxicity / cell viability assay (CCK-8).

Sequence of NiV F protein (Q9IH63 110-546 limits assumed): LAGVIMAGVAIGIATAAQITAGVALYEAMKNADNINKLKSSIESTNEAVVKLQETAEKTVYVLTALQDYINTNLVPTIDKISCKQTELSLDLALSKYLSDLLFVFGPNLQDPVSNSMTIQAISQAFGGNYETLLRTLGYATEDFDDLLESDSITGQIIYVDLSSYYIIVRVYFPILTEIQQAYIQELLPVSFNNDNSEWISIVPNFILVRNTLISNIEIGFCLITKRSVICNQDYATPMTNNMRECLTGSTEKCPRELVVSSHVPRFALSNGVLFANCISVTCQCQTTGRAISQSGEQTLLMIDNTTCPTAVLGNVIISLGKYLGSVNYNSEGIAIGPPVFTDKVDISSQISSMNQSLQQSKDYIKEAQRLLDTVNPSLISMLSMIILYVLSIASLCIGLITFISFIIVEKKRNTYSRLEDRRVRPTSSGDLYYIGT
Sequence of NiV F protein (Q9IH63 27-109 limits assumed): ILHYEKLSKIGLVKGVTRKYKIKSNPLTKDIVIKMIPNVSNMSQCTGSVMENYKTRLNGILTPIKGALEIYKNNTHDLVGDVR

As for `C1COCCN1.COc1ccc(P(=S)(S)N2CCOCC2)cc1` (centres unmarked) [GYY4137], in series [1], the EC50 was 10000 µM.
Take `COC(=O)C(CSSC(=O)c1ccccc1)NC(=O)c1ccccc1` (centres unmarked) [XM-01]: in series [2], the “capability of treated virions to infect Vero cells” value was “highly inhibited”, the “inhibition when added after infection (time of addition)” value was “completely incapable of inhibiting the virus”, the “inhibitory activity in the absence of light” value is listed as “did not need light to inhibit pNiV infections” and the inhibitory properties result is recorded as “high inhibitory properties”. For the same compound, in series [2], the “potency as antiviral inhibitor compared with NaHS or GYY4137” value is “much more potent” and the “viral infection of pretreated cells” value was “did not significantly reduce viral infection”. Also, the inhibition of infectivity result in series [2] (10 μM) is “high inhibition of infectivity”. Moreover, the EC50 in series [2] (read-out: EC50 (inhibitory concentration, pNiV system)) was approximately 1 µM. In series [3], the HSV-1 plaque formation result is “inhibit HSV-1 plaque formation in a concentration-dependent fashion”. Moreover, in [4], the RSV infection entry is on record as “inhibited”. For the same compound, the VSV infection result in series [5] is recorded as “inhibited”. Besides, the Influenza virus infection entry in series [6] is reported as “inhibited”. Moreover, the non-enveloped rotavirus infection entry in [7] is listed as “no significant inhibition”. For the same compound, in [8], the “cell to cell fusion” value was “inhibit cell to cell fusion”. For the same compound, the “protein G or F expression on cell surfaces” value in [9] is recorded as “neither XM-01 at 10 μM nor LJ001 at 1 μM significantly affect”. In series [10], the “RNA spill from virions (TEM)” value is given as “RNA spilled more frequently” and the “viral membrane appearance (TEM)” value is “compromised viral membrane”. Moreover, the “ratio of excimer to monomer (membrane fluidity)” value in series [11] was “considerably lower ratio of excimers to monomers”. For the same compound, the “ephrinB2 receptor binding ability of NiV G” value in [12] is recorded as “did not interfere”. Further, in series [13], the NiV-F protein triggering entry is on record as “not decreased”. Also, the “glycoprotein conformations (antibody binding to NiV F or NiV G)” value in series [14] was “no significant changes in antibody binding”. Moreover, in series [15] (1, 3, and 10 μM), the cytotoxicity result is “low cytotoxicity”. Moreover, the “difference between inhibitory and cytotoxic concentrations” value in series [15] (EC50 pNiV vs CC50) is approximately 3 log. The cytotoxic concentration (CC50) in series [15] (Vero cells, 1 μM-1 mM, calculated using Graphpad Prism) is approximately 1000 µM.
`CC(=O)NC(CSSC(=O)c1ccccc1)C(=O)NCc1ccccc1` (centres unmarked) [XM-02]: the inhibitory properties result in [2] is on record as “high inhibitory properties”.
Same read-out and setting: the same measure for `COC(=O)C(CSSC(C)=O)NC(=O)c1ccccc1` (centres unmarked) [XM-03]: “high inhibitory properties”.
On the same count and under the same terms, the value for `COC(=O)C(CSC(=O)c1ccccc1)NC(=O)c1ccccc1` (centres unmarked) [XM-10] was “high inhibitory properties”; that for `COC(=O)C(CSC(C)=O)NC(=O)c1ccccc1` (centres unmarked) [XM-11] was “high inhibitory properties”.

The CC50 is the concentration that lowers cell viability or growth by half.
